“Also recorded” adds a separate entry of the source.

The text below walks through data of patent publication US11964935B2, “Gingerol derivative having inhibitory activity against biofilm formation and pharmaceutical composition comprising same as effective ingredient for preventing or treating biofilm-caused infection symptom” (Korea University Research and Business Foundation, Sejong …, priority 2017, dated 2024).

The subject of test [1] is P. aeruginosa. Particulars: cited from earlier work.
The test system of test [2] is P. aeruginosa PA14. Nature of the test: Dynamic biofilm formation assay (drip-flow reactor, CLSM). It is filed as cell-based, Pseudomonas aeruginosa. To be noted: for Biofilm thickness / Biofilm volume: 10 μM compound, Comstat2; for Biofilm thickness / Biofilm volume / Biofilm formation in CLSM images, in words: 48 h drip-flow reactor; for Biofilm formation in CLSM images, in words: compared with DMSO or compound 1c. As for the experimental part: Glass slides were dipped into a Petri dish containing 2 mL of a P. aeruginosa PA14 suspension (OD595=1.0) and 18 mL of the AB medium, followed by incubation at 37° C. for 24 h to let the cells adhere to the slides. The slides were then inserted into a drip-flow reactor (DFR-110, BioSurface, Mont., USA). The AB medium with either a positive control or the synthesized compound (0-10 μM) was fed into the reactor continuously via a peristaltic pump (Masterflex C/L tubing pumps, Cole-Parmer, IL, USA) at 0.3 mL/min After operation of the reactor at 37° C. for 48 h, the cells on the slides were washed two times with PBS. The biofilm cells were stained with fluorescein isothiocyanate-labeled type IV ConA (Sigma-Aldrich) and SYPRO Ruby (Ruby, Invitrogen, Carlsbad, CA, USA) for 15 min, respectively. CLSM images were captured via a 20× objective lens (W N-Achroplan 20×/0.5 W [DIC] M27) with green fluorescence (ConA, excitation wavelength of 490 nm, emission wavelength of 525 nm) and red fluorescence (Ruby, excitation wavelength of 470 nm, emission wavelength of 618 nm) and were analyzed in the Zen 2011 software (Carl Zeiss, Jena, Germany). For quantification, biofilm volume (μm^3/μm^2) and average thickness (μm) were measured by means of Comstat2 in ImageJ.
A dynamic biofilm formation assay of compounds 41 and 42 was performed in a drip-flow reactor. Compound 1c served as a positive control, and DMSO served as a negative control. After 48 h drip-flow reactor operation, the biofilm was stained with Ruby and concanavalin A (ConA). Ruby (red) is a reagent for staining protein, and ConA (green) is for carbohydrate of biofilm. As shown in (A) of FIG. 8, the biofilm in the presence of DMSO formed with typical mushroom-like morphology. […] Biofilm volume and thickness with compound 41 were the lowest among the three groups (Table 1).

The test system of test [3] is P. aeruginosa PA14. Kind of test: Static biofilm formation assay. The class given is cell-based, Pseudomonas aeruginosa. As for the experimental part:
Overnight culture of P. aeruginosa PA14 (OD595=1.0) was diluted (1:20) with the AB medium (300 mM NaCl, 50 mM MgSO4, 0.2% vitamin-free casamino acids, 10 mM potassium phosphate, 1 mM L-arginine, and 1% glucose, pH 7.5) (1:20) containing with either positive controls or synthesized compounds (0-100 μM). The dilutions were aliquoted into borosilicate bottles, and the bottles were incubated at 37° C. for 24 h without agitation. After that, OD595 of the cell suspension was measured on the VICTOR ×5 multimode plate reader. The biofilm cells attached to the bottle were washed two times with phosphate buffered saline (PBS; 137 mM NaCl, 2.7 mM KCl, 10 mM Na2HPO4, and 2 mM KH2PO4, pH 7.2) and stained with 0.1% crystal violet for […] Next, the stained biofilm cells were eluted with 100% ethyl alcohol, and OD540 was measured on the VICTOR ×5 multimode plate reader. The biofilm formation was quantified by dividing OD540 with OD595.

Test [4] relates to P. aeruginosa PA14. Nature of the test: Growth inhibition assay. It is filed as cell-based, Pseudomonas aeruginosa. To be noted: 100 μM, 24 h. As for the experimental part:
A 5% dilution of overnight culture of P. aeruginosa PA14 (OD595=1.0) containing either a positive control or the synthesized compound (0-100 μM) was inoculated into wells of a 96-well polystyrene microtiter plate (Sigma-Aldrich). The plate was incubated at 37° C. for 24 h. OD595 of the suspension culture was measured on the VICTOR ×5 multimode plate reader.

Test [5] addresses T1, LasR (Pseudomonas aeruginosa, UniProt P25084).
T1 construct: expressed in transfected cells; host or cells: E. coli DH5α (printed DHSα) co-transformed with pJN105L and pSC11
Nature of the test: LasR reporter gene assay (E. coli reporter strain, luminescence, competition with OdDHL). It is filed as cell-based. Particulars: compound 1 μM or 10 μM in the presence of 1 μM OdDHL (compound 1a). As for the experimental part: This assay was conducted by modifying a previously reported method. E. coli DHSα co-transformed with two plasmids, pJN105L (LasR expression plasmid) and pSC11 (lasI::lacZ fusion plasmid), was used as a bioassay reporter strain. Overnight culture of the reporter strain with 10 μg/mL gentamicin and 50 μg/mL ampicillin was diluted in the Luria-Bertani (LB) medium (1:100). Then, the reporter strain (optical density at 595 nm [OD595] was 0.3) mixed with either a positive control or the synthesized compound was incubated with OdDHL (Sigma-Aldrich, St. Louis, MO., USA) and 0.4% arabinose (Sigma-Aldrich). After incubation at 37° C. for 1.5 h, OD595 was measured on a VICTOR ×5 multimode plate reader (PerkinElmer, Waltham, Mass., USA). The β-galactosidase activity was determined using a Tropix plus kit (Applied Biosystems, USA), and luminescence was measured on the VICTOR ×5 multimode plate reader. RLU ratio was quantified by dividing luminescence with OD595.
LasR-binding affinity of the synthesized gingerols (compounds 4-10) with various alkyl chain lengths was determined by measuring luminescence of an E. coli reporter strain. The reporter strain carried two plasmids, pJN105L (LasR expression plasmid) (Lee, J. H.; Lequette, Y.; Greenberg, E. P. Activity of purified QscR, a Pseudomonas aeruginosa orphan quorum-sensing transcription factor. Mol. Microbiol. 2006, 59, 602609.) and pSC11 (las1::lacZ fusion plasmid) (Chugani, S. A.; Whiteley, M.; Lee, K. M.; D'Argenio, D.; Manoil, C.; Greenberg, E. P. QscR, a modulator of quorum-sensing signal synthesis and virulence in Pseudomonas aeruginosa. Proc. Natl. Acad. Sci. U.S.A. 2001, 98, 27522757.), which enabled assay of competitive binding of OdDHL with each gingerol derivative 4-10. Antagonistic activities of the synthesized compounds at 1 μM or 10 μM were determined by measuring luminescence in the presence of 1 μM OdDHL (compound 1a) and presented as relative luminescence unit (RLU) ratio. Three compounds (compounds 1b, 1c, and 1d) served as positive controls. […] Just as the LasR inhibition, inhibition of biofilm formation also strengthened as the carbon chain was extended at 10 μM ((B) of FIG. 3). However, inhibition of biofilm formation decreased with 9-gingerol (compound 9) and 10-gingerol (compound 10) at 100 μM ((C) of FIG. 3) because of increased bacterial growth inhibition. […] This effect may be due to the fact that compounds 9 and 10 act as a surfactant, which inhibits bacterial growth. Agonistic activities of compounds 4-10 in an E. coli reporter assay system in the absence of OdDHL were next examined.
A general note: Reporter assays use an easily measured gene product as a stand-in for the process of interest.

For test [6], the target named is T1, LasR. Described as above. It is filed as cell-based. Particulars: compound 1 μM; compound 1a 0, 0.1, 1, 10 and 100 μM.

T1 sequence (P25084 whole entry): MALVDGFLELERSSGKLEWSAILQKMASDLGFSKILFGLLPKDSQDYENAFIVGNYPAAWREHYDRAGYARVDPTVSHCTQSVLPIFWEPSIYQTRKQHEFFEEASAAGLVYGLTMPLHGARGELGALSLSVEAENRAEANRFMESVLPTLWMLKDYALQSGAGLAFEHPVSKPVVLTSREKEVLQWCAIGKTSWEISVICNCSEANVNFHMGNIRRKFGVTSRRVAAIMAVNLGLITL

For the compound `CCCCC[C@H](O)CC(=O)CCc1ccc(O)c(OC)c1` [Compound 1b, (S)-6-gingerol], the “Biofilm formation and production of virulence factors (previously demonstrated)” value in test [1] (competition with OdDHL for LasR) was “reduces biofilm formation and production of virulence factors”.

In test [2] (CLSM), `CCCCCCCC(O)CC(=O)CCc1ccc(O)c(OC)c1` [Compound 1c, (S)-8-gingerol, reference compound] yielded a Biofilm thickness of 17.0 ± 0.4 μm and a Biofilm volume of 17.0 ± 0.4 μm^3/μm^2. Also, the “Biofilm formation in CLSM images, in words” value in test [2] (10 μM) is “relatively thin and sparse”.

On to `O=C1C=C(Br)/C(=C/Br)O1` [Compound 1d, (Z)-4-bromo-5-(bromomethylene)furan-2(5H)-one], for which the “Expression of virulence factors (prior report)” value in test [1] (interference with P. aeruginosa QS systems) is given as “inhibits the expression of virulence factors”.

Regarding `CCCCCCCCC(O)CC(=O)CCc1ccc(O)c(OC)c1` (stereo not drawn) [Compound 9, 5 -Hydroxy-1-(4-hydroxy-3-methoxyphenyl)tridecan-3-one], in test [3] (24 h, static), the “Inhibition of biofilm formation at 100 μM, in words” value is reported as “decreased”. Further, the Bacterial growth inhibition result in test [4] is “inhibited bacterial growth significantly”.

Take `CCCCCCCCCC(O)CC(=O)CCc1ccc(O)c(OC)c1` (stereo not drawn) [Compound 10, 5-Hydroxy-1-(4-hydroxy-3-methoxyphenyl)tetradecan-3-one]: the “Inhibition of biofilm formation at 100 μM, in words” value in test [3] (24 h, static) was “decreased”. Also, the Bacterial growth inhibition entry in test [4] was “inhibited bacterial growth significantly”.

Turning to `CCCCCCC[C@@H](O)CC(=O)/C=C/c1ccc(O)c(OC)c1` [Compound 41, (R,E)-5-Hydroxy-1-(4-hydroxy-3-methoxyphenyl)dodec-1-en-3-one], the “LasR-antagonistic activity / LasR-binding affinity (RLU ratio), in words” value in test [5] was “stronger LasR-binding affinity”. For the same compound, the “Inhibition of biofilm formation, in words” value in test [3] (10 μM, 24 h, static) was “greater inhibition of biofilm formation”. In test [2] (CLSM), this compound gave a Biofilm thickness of 10.3 ± 0.1 μm and a Biofilm volume of 7.4 ± 0.2 μm^3/μm^2. In addition, the “Biofilm formation in CLSM images, in words” value in test [2] (10 μM) is “relatively thin and sparse; also recorded: inhibited biofilm formation more effectively than compound 1c did”. For the same compound, in test [2] (ConA staining, CLSM, 10 μM), the “Volume of carbohydrates in biofilm compared to the other groups” value is listed as 47-74%. Besides, in test [2] (Ruby staining, CLSM, 10 μM), the “Volume of proteins in biofilm compared to the other groups” value is listed as 23-56%. Moreover, the Bacterial growth inhibition result in test [4] is given as “bacterial growth inhibition was not observed”. Also, the “Binding reversibility to LasR” value in test [6] is given as “binds reversibly to LasR”.

`CCCCCCC[C@@H](O)CC(=O)CCc1ccc(O)c(OC)c1` [Compound 42, (R)-5-Hydroxy-1-(4-hydroxy-3-methoxyphenyl)dodecan-3-one]: the “LasR-antagonistic activity / LasR-binding affinity (RLU ratio), in words” value in test [5] was “much stronger LasR-binding affinity than compound 1c”. The “Biofilm formation relative to compound 1c” value in test [3] (static assay, 10 μM, effect of compound 1c set to 100%) stood at 72%. Moreover, in test [2] (CLSM), the Biofilm thickness turned out to be 13.9 ± 0.1 μm and the Biofilm volume is reported as 9.7 ± 1.1 μm^3/μm^2. Further, the “Biofilm formation in CLSM images, in words” value in test [2] (10 μM) was “relatively thin and sparse; also recorded: inhibited biofilm formation more effectively than compound 1c did”. Further, in test [4], the Bacterial growth inhibition result is “bacterial growth inhibition was not observed”.
